Results reported in patent US6319915A, “Benzazepine derivatives as inhibitors of hyperproliferation diseases” (Pfizer Inc., priority 2000, dated 2001).

What follows are compounds tested against T1, VEGF/GAG (glycosaminoglycan) (Homo sapiens, UniProt P15692) (assay: in vitro inhibition of VEGF/GAG (glycosaminoglycan) binding ([125I]heparin-16-mer / VEGF165 filter binding)). Conditions: purified VEGF165 20 nM, 60 minutes at room temperature, 0.16% DMSO.
T1 construct: purchased Repligen, Inc
T1 sequence (P15692 1-191 isoform P15692-4): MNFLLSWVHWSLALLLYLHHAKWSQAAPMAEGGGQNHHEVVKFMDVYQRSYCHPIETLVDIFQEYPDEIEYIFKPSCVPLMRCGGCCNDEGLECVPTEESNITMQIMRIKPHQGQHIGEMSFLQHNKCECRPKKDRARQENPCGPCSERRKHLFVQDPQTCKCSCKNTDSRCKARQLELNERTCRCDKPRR
Procedure: The in vitro activity of the compounds of formula I in inhibiting VEGF/GAG (glycosaminoglycan) binding may be measured using the assay described in U.S. Pat. No. 5,795,860, the subject matter of which is incorporated herein by reference.
Using mixed cellulose ester 96-well filter plates, 150 μL of Dulbeccos PBS (phosphate buffered saline) containing 10% ovalbumin is added. Compound (5.0 μL) is added at a final concentration of […]. Compounds are dissolved in 8% DMSO (final DMSO concentration is 0.16%) and tested at concentrations of 32, 10, 3.2, 1.0, 0.32 and 0.10 μM. A mixture of [^125 I]heparin-16-mer (4500 cpm per well), purified VEGF165 (20 nM final concentration/well, prepared by Repligen, Inc.) and Dulbeccos PBS with 10% ovalbumin is added to the 96-well plate in a volume of 100 μL. Nonspecific binding is defined using 10 μM heparin-sodium from porcine intestinal mucosa. The assay plate is incubated for 60 minutes at room temperature, filtered using a Millipore filtration apparatus, the plastic bottom plate is removed and the filter plate is allowed to completely dry. The plate bottom is sealed with plastic plate seal and 25 μL of scintillation cocktail is added to each well. The top plate is sealed and is counted for radioactivity on a Microbeta Scintillation Counter. The assay is run in a final volume of 250 μL.

Compound	IC50 [nM]
Cc1ccccc1C1CC(NC(=O)Nc2cccc(C(=O)Nc3nnn[nH]3)c2)C(=O)N(CC(=O)NC2(C)CCCCC2)C(c2ccccc2)C1 (centres unmarked) [3-(3-{1-[(1-Methyl-cyclohexylcarbamoyl)-methyl]-2-oxo-7-phenyl-5-o-tolyl-azepan-3-yl}-ureido)-N-(1H-tetrazol-5-yl)-benzamide]	2300
Cc1ccccc1C1CC(NC(=O)Nc2cccc(C(=O)Nc3nnc(C(F)(F)F)s3)c2)C(=O)N(CC(=O)NC(C)(C)C)C(c2ccccc2)C1 (centres unmarked) [3-{3-[1-(tert-Butylcarbamoyl-methyl)-2-oxo-7-phenyl-5-o-tolyl-azepan-3-yl]-ureido}-N-(5-trifluoromethyl-[1,3,4]thiadiazol-2-yl)-benzamide]	8600
COc1ccccc1C1CC(NC(=O)Nc2cccc(-c3nnn[nH]3)c2)C(=O)N(CC(=O)NC2(C)CCCCC2)C(c2ccccc2)C1 (centres unmarked) [2-(5-(2-Methoxy-phenyl)-2-oxo-7-phenyl-3-{3-[3-(1H-tetrazol-5-yl)-phenyl]-ureido}-azepan-1-yl)-N-(1-methyl-cyclohexyl)-acetamide]	1900
Cc1ccccc1C1CC(NC(=O)Nc2cccc(C(=O)NS(=O)(=O)c3ccccc3)c2)C(=O)N(CC(=O)NC(C)(C)C)C(c2ccccc2)C1 (centres unmarked) [2-{3-[3-(3-Benzenesulfonylaminocarbonyl-phenyl)-ureido]-2-oxo-7-phenyl-5-o-tolyl-azepan-1-yl}-N-tert-butyl-acetamide]	1400
Cc1ccccc1C1CC(NC(=O)Nc2ccc3[nH]nnc3c2)C(=O)N(CC(=O)NC(C)(C)C)C(c2ccccc2)C1 (centres unmarked) [2-{3-[3-(1H-Benzotriazol-5-yl)-ureido]-2-oxo-7-phenyl-5-o-tolyl-azepan-1-yl}-N-tert-butyl-acetamide]	1600
Cc1ccc2c(c1)N(CC(=O)NC(C)(C)C)C(=O)C(NC(=O)Nc1cccc(C(=O)O)c1)CC2c1ccccc1 (centres unmarked) [3-{3-[1-(tert-Butylcarbamoyl-methyl)-8-methyl-2-oxo-5-phenyl-2,3,4,5-tetrahydro-1H-benzo[b]azepin-3-yl]-ureido}-benzoic acid]	9800
COc1ccccc1C1CC(NC(=O)Nc2cccc(C(=O)Nc3nnn[nH]3)c2)C(=O)N(CC(=O)NC2(C)CCCCC2)C(c2ccccc2)C1 (centres unmarked) [3-(3-{5-(2-Methoxy-phenyl)-1-[(1-methyl-cyclohexylcarbamoyl)-methyl]-2-oxo-7-phenyl-azepan-3-yl}-ureido)-N-(1H-tetrazol-5-yl)-benzamide]	900
COc1ccccc1C1CC(NC(=O)Nc2cccc(C(=O)O)c2)C(=O)N(CC(=O)NC(C)(C)C)C(c2ccccc2)C1 (centres unmarked) [3-{3-[1-(tert-Butylcarbamoyl-methyl)-5-(2-methoxy-phenyl)-2-oxo-7-phenyl-azepan-3-yl]-ureido}-benzoic acid]	4300
CC1(C)CCCC(C)(C)N1C(=O)CN1C(=O)C(NC(=O)Nc2cccc(-c3nnn[nH]3)c2)COc2cc(F)ccc21 (centres unmarked) [1-{3-Fluoro-8-oxo-9-[2-oxo-2-(2,2,6,6-tetramethyl-piperidin-1-yl)-ethyl]-6,7,8,9-tetrahydro-5-oxa-9-aza-benzocyclohepten-7-yl}-3-[3-(1H-tetrazol-5-yl)-phenyl]-urea]	1700
COc1ccccc1C1CC(NC(=O)Nc2cccc(C(=O)Nc3nnn[nH]3)c2)C(=O)N(CC(=O)NC(C)(C)C)C(c2ccccc2)C1 (centres unmarked) [3-{3-[1-(tert-Butylcarbamoyl-methyl)-5-(2-methoxy-phenyl)-2-oxo-7-phenyl-azepan-3-yl]-ureido}-N-(1H-tetrazol-5-yl)-benzamide]	1700
Cc1ccccc1C1CC(NC(=O)Nc2cccc(C(=O)O)c2)C(=O)N(CC(=O)NC(C)(C)C)C(c2ccccc2)C1 (centres unmarked) [3-{3-[1-(tert-Butylcarbamoyl-methyl)-2-oxo-7-phenyl-5-o-tolyl-azepan-3-yl]-ureido}-benzoic acid]	20000
CC1(C)CN(C(=O)CN2C(=O)C(NC(=O)Nc3cccc(-c4nnn[nH]4)c3)CSc3ccccc32)CC(C)(C)C1 (centres unmarked) [1-{4-Oxo-5-[2-oxo-2-(3,3,5,5-tetramethyl-piperidin-1-yl)-ethyl]-2,3,4,5-tetrahydro-benzo[b][1,4]thiazepin-3-yl}-3-[3-(1H-tetrazol-5-yl)-phenyl]-urea]	6700
COc1ccccc1C1CC(NC(=O)Nc2cccc(C(=O)NS(C)(=O)=O)c2)C(=O)N(CC(=O)NC2(C)CCCCC2)C(c2ccccc2)C1 (centres unmarked) [2-[3-[3-(3-Methanesulfonylaminocarbonyl-phenyl)-ureido]-5-(2-methoxy-phenyl)-2-oxo-7-phenyl-azepan-1-yl]-N-(1-methyl-cyclohexyl)-acetamide]	3000
CC1(C)CN(C(=O)CN2C(=O)C(NC(=O)Nc3cccc(-c4nnn[nH]4)c3)COc3cc(F)ccc32)CC(C)(C)C1 (centres unmarked) [1-{3-Fluoro-8-oxo-9-[2-oxo-2-(3,3,5,5-tetramethyl-piperidin-1-yl)-ethyl]-6,7,8,9-tetrahydro-5-oxa-9-aza-benzocyclohepten-7-yl}-3-[3-(1H-tetrazol-5-yl)-phenyl]-urea]	3700
Cc1ccccc1C1CC(NC(=O)Nc2cccc(-c3nnn[nH]3)c2)C(=O)N(CC(=O)NC2(C)CCCCC2)C(c2ccccc2)C1 (centres unmarked) [N-(1-Methyl-cyclohexyl)-2-(2-oxo-7-phenyl-3-{3-[3-(1H-tetrazol-5-yl)-phenyl]-ureido}-5-o-tolyl-azepan-1-yl)-acetamide]	2000

Now from value to compound:

IC50 [nM]	Compound
2400	Cc1cccc(NC(=O)NC2CC(c3ccccc3C)CC(c3ccccc3)N(CC(=O)O)C2=O)c1 (centres unmarked) [[2-Oxo-7-phenyl-5-o-tolyl-3-(3-m-tolyl-ureido)-azepan-1-yl]-acetic acid]
3700	Cc1ccccc1C1CC(NC(=O)Nc2cccc(-c3nnn[nH]3)c2)C(=O)N(CC(=O)NC(C)(C)C)C(c2ccccc2)C1 (centres unmarked) [N-tert-Butyl-2-(2-oxo-7-phenyl-3-{3-[3-(1H-tetrazol-5-yl)-phenyl]-ureido}-5-o-tolyl-azepan-1-yl)-acetamide]
700	COc1ccccc1C1CC(NC(=O)Nc2cccc(-c3nnn[nH]3)c2)C(=O)N(CC(=O)NC(C)(C)C)C(c2ccccc2)C1 (centres unmarked) [N-tert-Butyl-2-(5-(2-methoxy-phenyl)-2-oxo-7-phenyl-3-{3-[3-(1H-tetrazol-5-yl)-phenyl]-ureido}-azepan-1-yl)-acetamide]
5800	COc1ccccc1C1CC(NC(=O)Nc2cccc(C(=O)NS(C)(=O)=O)c2)C(=O)N(CC(=O)NC(C)(C)C)C(c2ccccc2)C1 (centres unmarked) [N-tert-Butyl-2-[3-[3-(3-methanesulfonylaminocarbonyl-phenyl)-ureido]-5-(2-methoxy-phenyl)-2-oxo-7-phenyl-azepan-1-yl]-acetamide]
4300	Cc1ccc2c(c1)N(CC(=O)NC(C)(C)C)C(=O)C(NC(=O)Nc1cccc(-c3nnn[nH]3)c1)CC2C1CCCCC1 (centres unmarked) [N-tert-Butyl-2-(5-cyclohexyl-8-methyl-2-oxo-3-{3-[3-(1H-tetrazol-5-yl)-phenyl]-ureido}-2,3,4,5-tetrahydro-benzo[b]azepin-1-yl)-acetamide]
1700	Cc1ccccc1C1CC(NC(=O)Nc2cccc(C(=O)NS(=O)(=O)C(F)(F)F)c2)C(=O)N(CC(=O)NC2(C)CCCCC2)C(c2ccccc2)C1 (centres unmarked) [N-(1-Methyl-cyclohexyl)-2-{2-oxo-7-phenyl-5-o-tolyl-3-[3-(3-trifluoromethanesulfonylaminocarbonyl-phenyl)-ureido]-azepan-1-yl}-acetamide]
11000	Cc1ccc2c(c1)N(CC(=O)NC(C)(C)C)C(=O)C(NC(=O)Nc1cccc(C(=O)NS(C)(=O)=O)c1)CC2c1ccccc1 (centres unmarked) [N-tert-Butyl-2-{3-[3-(3-methanesulfonylaminocarbonyl-phenyl)-ureido]-8-methyl-2-oxo-5-phenyl-2,3,4,5-tetrahydro-benzo[b]azepin-1-yl}-acetamide]
2400	Cc1ccccc1C1CC(NC(=O)Nc2cccc(C(=O)NS(=O)(=O)Cc3ccccc3)c2)C(=O)N(CC(=O)NC(C)(C)C)C(c2ccccc2)C1 (centres unmarked) [N-tert-Butyl-2-{2-oxo-7-phenyl-3-[3-(3-phenylmethanesulfonylaminocarbonyl-phenyl)-ureido]-5-o-tolyl-azepan-1-yl}-acetamide]
